Patent US20030175314A1, “Pharmaceutical composition for dermal application” (priority 2001, published 2003)

What was measured:
PDE4 = assay: in vitro PDE4 inhibition; format: biochemical; settings: in vitro studies
Source text: (§1) The compound of formula I, 1,3-dicyclopropylmethyl-8-aminoxanthine, is also known by the proposed generic name cipamfylline. The compound and a method of its preparation is disclosed in U.S. Pat. No. 5,734,051 which is hereby incorporated by reference in its entirety.

[1] = tested on: secretion of proinflammatory cytokines such as tumour necrosis factor α (TNF-α), IL-10, IL-12 and IFN-γ; assay: in vitro secretion of proinflammatory cytokines; format: cell-based; settings: in vitro studies
Source text: as §1

lymphocyte proliferation = assay: in vitro lymphocyte proliferation; format: cell-based; settings: in vitro studies
Source text: as §1

solubility = format: physicochemical
Procedure: Cipamfylline has a pronounced inner crystal bonding resulting in a high melting point (about 310-312° C.) and some degree of hydrophobicity. […] On the other hand, effective delivery of the active component into the epidermis where it can exert its effect requires that the compound be present in a dissolved state in said composition.

[2] = format: physicochemical
Source text: More specifically, the solvent comprises a non-toxic glycol or glycol ether selected from the group consisting of propylene glycol, butylene glycol, diethylene glycol and diethylene glycol ether. […] The advantageous dissolution properties of propylene glycol may be explained by the solubility properties of this particular solvent, as determined by the Hildebrand solubility coefficient (J H Hildebrand and R L Scott, The Solubility of Non-Electrolytes, Reinhold, N.Y., 1949). […] Thus propylene glycol has a Hildebrand coefficient within ±2 units of that of cipamfylline which makes it an effective solvent for this active component.

atopic dermatitis = assay: phase II left/right study, cipamfylline cream vs vehicle or Locoid cream (Example 2); format: in vivo, Humans; settings: for decrease of total severity score: 1 g twice daily, two weeks
Procedure: In a phase II, multi-centre, randomised, double-blind left/right study comparing cipamfylline cream 1.5 mg/g (formulation B) with the reference vehicle without cipamfylline and with Locoid cream 0.1% (hydrocortisone-17-butyrate 0.1% cream) in patients suffering from atopic dermatitis, patients were randomised to either group (1) cipamfylline cream 1.5 mg/g in reference vehicle vs vehicle or (2) cipamfylline cream 1.5 mg/g in reference vehicle vs Locoid cream. One g of each cream were applied twice daily for two weeks. A total number of 108 patients with a clinical diagnosis of atopic dermatitis, with symmetrical lesions of atopic dermatitis on their arms with a minimum score of 6 in the total severity score (ratings of erythema, oedema/papulation, oozing/crusting, excoriations and lichenification on a scale from 0-3) were included. Excluded were patients with suspected infection in the treatment areas, patients who were receiving other treatment for atopic dermatitis or who were pregnant or planning to become pregnant in the course of the study.

skin = skin irritation by the solvent; format: in vivo; settings: propylene glycol in itself
Source text: Apart from being a solvent for cipamfylline, propylene glycol as a secondary penetration enhancer, i.e. a substance which is capable of penetrating the stratum corneum and “draw” low-molecular components such as therapeutically active components in the vehicle into the epidermis. […] For this reason, propylene glycol has previously been thought to be unsuitable for inclusion as a solvent in compositions intended for the treatment of atopic dermatitis. However, the present vehicle has been specifically designed to exclude all excipients which are capable of penetrating into the epidermis (or being “drawn” into the epidermis by the solvent) and which are not essential for formulation purposes, resulting in a composition which, according to the clinical tests described in Example 3 herein, gives rise to fewer irritative reactions in skin on which the composition is applied compared to a conventional reference formulation. This, of course, is particularly important for dermal formulations intended for application on inflamed, and therefore highly irritated skin so as to avoid a painful burning sensation at the site of application and more long-term irritation such as pain or itching.

solubility (solubility; water) [µg/mL] | solubility with water as co-solvent (solubility; water present as a co-solvent in an amount of about 25% or more) | SMILES | inhibition of PDE4 (PDE4) | inhibition of the secretion of proinflammatory cytokines (TNF-α, IL-10, IL-12, IFN-γ) [1] | effect on lymphocyte proliferation (lymphocyte proliferation) | Hildebrand coefficient (solubility parameter δ) [2] | decrease of total severity score (atopic dermatitis; group (1) cipamfylline cream 1.5 mg/g (formulation B) vs vehicle, end of study) [%] | decrease of total severity score (atopic dermatitis; group (2) cipamfylline cream 1.5 mg/g (formulation B) vs Locoid cream 0.1%, end of treatment) [%] | patients with local adverse reactions (burning, stinging, pruritus) (atopic dermatitis; treated side, cipamfylline cream 1.5 mg/g vs vehicle) | skin irritation (skin)
< 50 | greatly decreased | Nc1nc2c([nH]1)c(=O)n(CC1CC1)c(=O)n2CC1CC1 [cipamfylline, 1,3-dicyclopropylmethyl-8-aminoxanthine] | potent and selective inhibitor | inhibitor | no effect | about 13.4 (cal/cm^3)^1/2 | 38 | 30 | 15 % of the patients | –
– | – | CC(O)CO (centres unmarked) [propylene glycol] | – | – | – | about 14.8 (cal/cm^3)^1/2 | – | – | – | does not in itself give rise to any significant skin irritation
